From ChEMBL document CHEMBL1127149, “The squalestatins: potent inhibitors of squalene synthase. The role of the tricarboxylic acid moiety” (Bioorg Med Chem Lett, 1993)

Key:
Squalene synthase = target: T1, Squalene synthase (Rattus norvegicus, UniProt Q02769); assay: In vitro inhibitory activity measured against rat squalene synthase(SQS) enzyme
T1 sequence (Q02769 whole entry): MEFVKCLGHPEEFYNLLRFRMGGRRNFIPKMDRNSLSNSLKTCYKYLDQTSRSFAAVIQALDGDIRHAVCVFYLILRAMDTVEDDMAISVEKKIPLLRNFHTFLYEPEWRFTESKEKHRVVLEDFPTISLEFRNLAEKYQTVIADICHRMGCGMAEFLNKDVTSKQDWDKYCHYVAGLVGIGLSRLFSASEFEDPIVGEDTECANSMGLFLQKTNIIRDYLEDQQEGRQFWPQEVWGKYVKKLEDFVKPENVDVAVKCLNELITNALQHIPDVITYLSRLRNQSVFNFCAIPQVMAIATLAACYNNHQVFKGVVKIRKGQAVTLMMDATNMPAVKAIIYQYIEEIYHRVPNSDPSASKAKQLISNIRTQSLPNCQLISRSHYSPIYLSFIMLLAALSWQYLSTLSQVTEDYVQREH

Rattus norvegicus = organism: Rattus norvegicus; assay: Inhibitory activity of compound was measured against cholesterol biosynthesis from [14C]- acetate by isolated rat hepatocytes; assay type: functional; conditions: Hepatocyte

SMILES	IC50 (Squalene synthase)	IC50 (Rattus norvegicus)
C=C(CC[C@]12O[C@H](C(=O)O)[C@@](O)(C(=O)O)[C@](C(=O)O)(O1)[C@H](OC(=O)/C=C/[C@@H](C)C[C@@H](C)CC)[C@H]2O)[C@@H](OC(C)=O)[C@H](C)Cc1ccccc1 [ZARAGOZIC ACIDS A]		39 nM
C=C(CC[C@]12O[C@H](C(=O)O)[C@@](O)(C(=O)O)[C@](C(=O)OC)(O1)[C@H](O)[C@H]2O)[C@@H](OC(C)=O)[C@H](C)Cc1ccccc1	> 500 nM	
C=C(CC[C@]12O[C@H](C(=O)O)[C@@](O)(C(=O)OC)[C@](C(=O)OC)(O1)[C@H](OC(=O)/C=C/[C@@H](C)C[C@@H](C)CC)[C@H]2O)[C@@H](OC(C)=O)[C@H](C)Cc1ccccc1	> 500 nM	
C=C(CC[C@]12O[C@H](C(=O)OC)[C@@](O)(C(=O)OC)[C@](C(=O)OC)(O1)[C@H](OC(=O)/C=C/[C@@H](C)C[C@@H](C)CC)[C@H]2O)[C@@H](OC(C)=O)[C@H](C)Cc1ccccc1	> 500 nM	
C=C(CC[C@]12O[C@H](C(=O)OC)[C@@](O)(C(=O)O)[C@](C(=O)OC)(O1)[C@H](OC(=O)/C=C/[C@@H](C)C[C@@H](C)CC)[C@H]2O)[C@@H](OC(C)=O)[C@H](C)Cc1ccccc1	> 500 nM	

Further lines, with some results ahead:

IC50 (Squalene synthase)	SMILES	IC50 (Rattus norvegicus)
> 500 nM	C=C(CC[C@]12O[C@H](C(=O)O)[C@@](O)(C(=O)O)[C@](C(=O)OC)(O1)[C@H](OC(=O)/C=C/[C@@H](C)C[C@@H](C)CC)[C@H]2O)[C@@H](OC(C)=O)[C@H](C)Cc1ccccc1	
220 nM	C=C(CC[C@]12O[C@H](C(=O)OC)[C@@](O)(C(=O)O)[C@](C(=O)O)(O1)[C@H](O)[C@H]2O)[C@@H](OC(C)=O)[C@H](C)Cc1ccccc1	
355 nM	C=C(CC[C@]12O[C@H](C(=O)O)[C@@](O)(C(=O)OC)[C@](C(=O)O)(O1)[C@H](O)[C@H]2O)[C@@H](OC(C)=O)[C@H](C)Cc1ccccc1	
134 nM	C=C(CC[C@]12O[C@H](C(=O)OC)[C@@](O)(C(=O)OC)[C@](C(=O)O)(O1)[C@H](OC(=O)/C=C/[C@@H](C)C[C@@H](C)CC)[C@H]2O)[C@@H](OC(C)=O)[C@H](C)Cc1ccccc1	
